Results from publication PMC7359039, “Peptides based on the reactive center loop of Manduca sexta serpin-3 block its protease inhibitory function” (Scientific Reports, 2020).
Blank lines part the entries; values can stand above or below the molecule they belong to.

Columns and labels:
[1] = system: serpin-3∆N; test: Blocking of serpin-3∆N inhibition of PAP3 by RCL-derived peptides (residual IEARase activity); assay type: biochemical, Manduca sexta; settings: serpin-3∆N 135 ng, 37 °C 2 h; for PAP3 activity (percentage of IEARase activity) after treatment of serpin-3∆N with peptide: peptide 25 nmol pre-dried, then PAP3 108 ng 10 min room temperature, IEAR-pNA 50 µM, mean ± SD, n = 3; for blockage of serpin-3∆N inhibition of PAP3: peptide 25 nmol, PAP3 108 ng
Procedure: Peptides (25 nmol) in TFE or TFE alone as a control were applied to wells of a 96-well plate and allowed to dry (> 1 h). Serpin-3ΔN (135 ng/7.5 µl) was then added to the wells and incubated at 37 °C for 2 h. PAP3 (108 ng) supplemented with 18 μg bovine serum albumin (BSA) in 46.5 µl 20 mM Tris, 150 mM NaCl, pH 8.0,was then added to the wells and incubated for 10 min at room temperature. The PAP3 substrate N-acetyl-Ile-Glu-Ala-Arg-p-nitroanilide (IEAR-pNA) at 50 µM in 0.1 M Tris, 0.1 M NaCl, 5 mM CaCl2, pH 8.0 was then added, and residual PAP3 activity was measured by the change of absorbance at 405 nm over 20 min at room temperature. Percentage of IEARase activity was defined as IEARase activity divided by IEARase activity of PAP3 in the absence of serpin. One-way ANOVA with Tukey’s multiple comparison as post test was performed in GraphPad Prism. Samples for analysis by reducing SDS-PAGE and immunoblotting were prepared in a similar way. Peptides or TFE were dried in 1.5 mL microcentrifuge tubes and incubated with 7.5 µl serpin-3ΔN (135 ng) at 37 °C for 2 h, followed by addition of 46.5 µl PAP3 (108 ng) supplemented with 18 µg BSA. and further incubated for 10 min at room temperature. Samples were then analyzed by reducing SDS-PAGE and immunoblotting as described above.

[2] = system: proPO activation system in plasma; test: proPO activation in plasma with added serpin-3∆N, untreated or pre-incubated with peptide; assay type: biochemical, Manduca sexta; settings: peptide 10 nmol pre-incubated with serpin-3∆N 0.1 µg at 37 °C 2 h, 2 µl plasma, one unit = 0.001 change of OD470 per minute, mean ± SD, n = 4 larvae
Procedure: Hemolymph was collected from day 2 fifth instar larvae and centrifuged at 12,000 rpm for 25 min at 4 °C to remove hemocytes, to prepare plasma samples containing the proPO activation system. To examine the effect of pre-incubation of peptide with serpin before exposure to plasma, Ac-SVAFS-COO^− (10 nmol in TFE) or TFE alone were dried in wells of a 96-well plate and then incubated with 4 µL serpin-3ΔN (0.1 µg) at 37 °C for 2 h, followed by incubation with 2 μl plasma at room temperature for 10 min. Then the proPO cascade was stimulated by addition of 1 μg Micrococcus luteus to activate the proPO protease cascade or filter-sterilized 0.85% NaCl as a control. These mixtures were incubated at room temperature for 10 min, and then PO activity was measured by adding 100 μl of 4 mM dopamine as substrate in 50 mM sodium phosphate, pH 6.5. PO activity was measured by detecting increase in absorbance at 470 nm. One unit of PO activity was defined as 1,000 × ∆A470/minute. Three replicates with four different larval plasma samples were examined. Paired one-way ANOVA with Tukey’s multiple comparison as post test was performed in GraphPad Prism.

[3] = system: serpin-3∆N; test: Circular dichroism thermal stability of serpin-3∆N and its binary complex with peptide; assay type: physicochemical, Manduca sexta; settings: binary complex purified by gel permeation; 10 mM Tris, 5 mM NaCl, pH 8.0; 90 °C highest temperature tested
Procedure: To examine effects of RCL-derived peptides on serpin-3ΔN secondary structure, 600 µL serpin-3ΔN (150 μg) and 1.8 mL Ac-SVAFS-COO^− (25 μmol) were mixed and incubated at 37 °C for 2 h to allow formation of a serpin-peptide binary complex. Then the mixture was subjected to gel permeation chromatography using Superdex 200 10/300 GL ([…]) in 20 mM Tris–HCl, 150 mM NaCl, pH 8.0 to separate binary complex from free peptide. The fractions containing serpin-3ΔN, presumed to be in complex with peptide, were pooled and quantified. Ellipticity of serpin-3ΔN (0.149 mg/ml) or purified binary complex (0.129 mg/ml) in 10 mM Tris, 5 mM NaCl, pH 8.0 was measured in a 0.01 cm cuvette from 190 to 260 nm at 20 °C. The temperature was then increased in 10 °C increments, and the spectra were measured at each temperature from 20 to 90 °C. The ellipticity of the buffer was also recorded and subtracted from that of serpin-3ΔN and binary complex. The data were smoothed by the method of Savitzky-Golay with value of 15[33]. Mean residue ellipticity was calculated as (ellipticity × mean residue weight)/(10 × 0.01 cm × concentration). Three replicates were examined and results were visualized by GraphPad Prism (means ± standard deviation).

[4] = Aqueous solubility of peptides (qualitative); assay type: physicochemical; settings: qualitative statement
[5] = system: serpin-3∆N; test: Time course of inactivation of serpin-3∆N by pentapeptides; assay type: biochemical, Manduca sexta; settings: peptide 400 nmol, serpin-3∆N 720 ng, 37 °C; for suppression of serpin-3∆N inhibitory activity by 40 min: aliquots with 72 ng PAP3 10 min room temperature, IEARase activity
Procedure: To examine the time course of peptide interaction with serpin-3ΔN, pre-dried Ac-SVAFS-NH2 or Ac-SVAFS-COO^- (400 nmol) were incubated with 40 μL purified serpin-3ΔN (720 ng) supplemented with 40 μL BSA (80 μg) at 37 °C for 1 h. At 0, 10, 20, 40 and 60 min, 12 μL aliquots were withdrawn and immediately incubated with 72 ng of PAP3 at room temperature for 10 min, followed by measuring residual PAP3 activity with […] in 0.1 M Tris, 0.1 M NaCl, 5 mM CaCl2, pH 8.0.

[6] = molecular target: Manduca sexta prophenoloxidase activating protease 3 (PAP3), activated form (Manduca sexta)
[7] = system: proPO activation system in plasma (endogenous serpin-3); test: proPO activation in plasma mixed directly with peptide; assay type: biochemical, Manduca sexta; settings: plasma incubated with pre-dried peptide 1 h room temperature, then M. luteus 10 min; one unit = 0.001 change of OD470 per minute; mean ± SD, n = 4 larvae
Procedure: For an experiment to test the effects of peptide mixed directly to plasma samples, pre-dried Ac-SVAFS-NH2 (25 nmol) or TFE in wells of a 96-well plate were incubated with 5 μl plasma for 1 h at room temperature, followed by addition of 95 μl of 50 mM sodium phosphate buffer, pH 6.5 supplemented with or without 2 μg of M. luteus (Sigma). After incubation for 10 min at room temperature, PO activity was measured as described above. Three replicates with four different larval plasma samples were examined. Statistical analysis was done as described above.

[8] = system: serpin-3∆N; test: SDS-PAGE and immunoblot of serpin-3∆N/PAP3 inhibitory complex formation in presence of peptides; assay type: biochemical, Manduca sexta; settings: peptide 25 nmol, serpin-3∆N 135 ng 37 °C 2 h, PAP3 108 ng 10 min; reducing SDS-PAGE, serpin-3 antiserum
Procedure: Protein concentration was measured using Coomassie Plus Protein Assay Reagent (Thermo Scientific), with bovine serum albumin as a standard. Protein samples analyzed by SDS polyacrylamide gel electrophoresis were mixed with 2 × or 6 × SDS loading buffer (supplemented with β-mercaptoethanol) followed by heating at 95 °C for 5 min. Samples were loaded into wells of 4–12% Bis–Tris NuPAGE gels (Invitrogen) and separated by electrophoresis using MOPS buffer. The gels were stained using Instant Blue (Expedeon) or transferred to nitrocellulose in a semi-dry transfer cell (Bio-Rad). The presence of PAP3 or serpin-3ΔN on the membrane was detected using rabbit antisera to PAP3[31] or serpin-3[13], followed by goat anti-rabit IgG conjugated to alkaline phosphatase (BioRad) and colorimetric detection of immobilized alkaline phosphatase activity.
Peptides (25 nmol) in TFE or TFE alone as a control were applied to wells of a 96-well plate and allowed to dry (> 1 h). Serpin-3ΔN (135 ng/7.5 µl) was then added to the wells and incubated at 37 °C for 2 h. […] The PAP3 substrate N-acetyl-Ile-Glu-Ala-Arg-p-nitroanilide (IEAR-pNA) at 50 µM in 0.1 M Tris, 0.1 M NaCl, 5 mM CaCl2, pH 8.0 was then added, and residual PAP3 activity was measured by the change of absorbance at 405 nm over 20 min at room temperature. […] Samples were then analyzed by reducing SDS-PAGE and immunoblotting as described above.

[9] = molecular target: Manduca sexta serpin-3∆N (Manduca sexta)
[10] = molecular target: Manduca sexta serpin-3∆N (Manduca sexta); remark: listed apart in the source

- PAP3 activity (percentage of IEARase activity) after treatment of serpin-3∆N with peptide [1]: 59% ± 5%
- blockage of serpin-3∆N inhibition of PAP3 [1]: about 50%
Molecule: Ac-SVAFSATQ-NH2 [octapeptide from serpin-3 RCL P14-P7]

- temperature up to which serpin-3∆N in complex with peptide showed little change in CD spectrum [3]: ≥ 90 °C
- aqueous solubility [4]: improved solubility
- aqueous solubility ([4]; listed as five residue peptide SVAFS with only an N-terminal acetylated group): much more soluble
Molecule: Ac-SVAFS-COO^−
- PO activity in M. luteus-stimulated plasma with peptide-treated serpin-3∆N added [2]: 8.7 ± 2.8 unit
- time after which inactivation of serpin-3∆N began to occur [5]: ≤ 10 min
- suppression of serpin-3∆N inhibitory activity by 40 min [5]: ~ 100%

- residual PAP3 amidase (IEARase) activity on IEAR-pNA after 10 min with serpin-3∆N, percent of PAP3 without serpin [6]: 9%
Molecule: Manduca sexta serpin-3∆N (domain or fragment)

- PAP3 activity (percentage of IEARase activity) after treatment of serpin-3∆N with peptide [1]: 100% ± 6%
- blockage of serpin-3∆N inhibition of PAP3 [1]: completely blocked
- aqueous solubility [4]: very low
Molecule: Ac-SVAFS-NH2 [pentapeptide from serpin-3 RCL P14-P10, acetylated and amidated]
- PO activity in plasma incubated with peptide, after addition of bacteria [7]: 10.7 ± 5.5 unit
- time after which inactivation of serpin-3∆N began to occur [5]: ≤ 10 min
- suppression of serpin-3∆N inhibitory activity by 40 min [5]: ~ 100%
- ~75 kDa serpin-3∆N-PAP3 inhibitory complex on immunoblot [8]: absence

- residual PAP3 amidase (IEARase) activity after serpin-3∆N was pre-treated with 25 nmol peptide (37 °C, 2 h); the peptide blocks inhibition of PAP3 by serpin-3∆N [9]: 59%
B1: Ac-SVAFSATQ-NH2 (peptide)
peptide: Ac-SVAFSATQ-NH2

- residual PAP3 amidase (IEARase) activity after serpin-3∆N was pre-treated with 25 nmol peptide (37 °C, 2 h); the peptide blocks inhibition of PAP3 by serpin-3∆N [9]: 100%
- time course (0-60 min at 37 °C, 400 nmol peptide) of suppression of serpin-3∆N inhibition of PAP3, read as PAP3 IEARase activity [10]: 100%
B2: Ac-SVAFS-NH2 (peptide)
peptide: Ac-SVAFS-NH2

- time course (0-60 min at 37 °C, 400 nmol peptide) of suppression of serpin-3∆N inhibition of PAP3, read as PAP3 IEARase activity [10]: 100%
B3: Ac-SVAFS-COO^− (peptide)
peptide: Ac-SVAFS-OH
